Tests used:
tau protein = assay: Tau protein in vitro degradation assay in SK-N-SH cells (Western blot); type: cell-based, human; details: % degraded, 72-hour incubation
Experimental: 10. Tau Protein In Vitro Degradation Assay
To determine effect of PROTACs on tau protein degradation SK-N-SH cells were seeded in a 24-well tissue culture-treated plate for at least 18-hours prior to compound addition. Tau PROTACs were evaluated for tau degradation by lysing the cells in RIPA buffer with protease inhibitors following a 72-hour incubation with tau PROTACs. Cell lysates were run on standard SDS-PAGE gels, and tau levels were detected by Western blotting using Tau-13 antibody from Abcam (Cambridge, UK) that binds to all forms of human tau.

c-myc = assay: BRD4 human c-Myc ELISA assay in 22RV-1 cells; type: cell-based; details: 18 hours
Experimental: 6. BRD4 Human c-Myc ELISA Assay Protocol
22RV-1 cells were seeded at 30,000 cells/well at a volume of 75 µL/well in RPMI with 10% FBS media in 96-well plates and grown overnight at 37° C. Cells were dosed with compounds at 4× concentration diluted in 0.4% DMSO; compounds were serially diluted 1:3 for 8-point dose curve. Twenty-five (25) ul of the compounds was added to cells for a final concentration starting at 300 nM-0.3 nM or 1 uM-1 nM in 0.1% DMSO and incubated for 18 hours. Media was aspirated, cells were washed 1×with PBS and aspirated. Cells were lysed in 50 ul RIPA buffer (50 mM Tris pH8, 150 mM NaCl, 1% Tx-100, 0.1% SDS, 0.5% sodium deoxycholate) supplemented with protease and phosphatase inhibitors. Plates were incubated on ice for 15 minutes then centrifuged at 4° C. for 10 minutes at 4000 rpm. Fifty (50) ul of cleared lysate from a 96-well assay plate was added into 96-well c-myc ELISA plate (Novex, Life Technologies Catalog #KH02041). c-myc standard was reconstituted with standard diluent buffer; standard curve range of 333 pg/ml-0 pg/ml was prepared, diluted 1:2 for 8-point dose curve. The rest of the assay was performed following the protocol from the c-myc ELISA kit. Data was analyzed and plotted using GraphPad Prism software.

| SMILES | Tau degradation % DMax (tau protein) | IMax Myc (c-myc) |
| --- | --- | --- |
| Cn1c2ccncc2c2ccc(-c3ccc(OCCOCCOCCOCCOCCN4CCC5(CC4)CC(=O)N(C4CCC(=O)NC4=O)C5=O)nc3)cc21 (centres unmarked) [PROTAC-112, 2-(2,6-dioxopiperidin-3-yl)-8-(14-((5-(5-methyl-5H-pyrido[4,3-b]indol-7-yl)pyridin-2-yl)oxy)-3,6,9,12-tetraoxatetradecyl)-2,8-diazaspiro[4.5]decane-1,3-dione] | C (C <= 50) |  |
| Cc1sc2c(c1C)C(c1ccc(Cl)cc1)=NC(CC(=O)NCCCOCCCOc1ccc3ncc(-n4ccc(=O)[nH]c4=O)cc3c1)c1nnc(C)n1-2 (centres unmarked) [PROTAC-1, 2-(4-(4-chlorophenyl)-2,3,9-trimethyl-6H-thieno[3,2-f][1,2,4]triazolo[4,3-a][1,4]diazepin-6-yl)-N-(3-(3-((3-(2,4-dioxo-3,4-dihydropyrimidin-1(2H)-yl)quinolin-6-yl)oxy)propoxy)propyl)acetamide] |  | 40C (C <= 50) |
